Measurements: patent US12435046B2, “Alkynyl quinazoline compounds” (Black Diamond Therapeutics, Inc., priority 2019, dated 2025)
Blank lines part the entries; values can stand above or below the molecule they belong to.

Assays:
[1] = target: T1, HER2 YVMA (Homo sapiens, UniProt P04626, INS775YVMA); assay: BaF3 cell proliferation assay (CellTiterGlo), HER2 YVMA; assay type: cell-based; details: Table A; BaF3 cells, 3 days
T1 construct: expressed in transfected cells; host or cells: BaF3 (murine pro-B) cells

[2] = target: T2, HER2 S310F (Homo sapiens, UniProt P04626, S310F); assay: BaF3 cell proliferation assay (CellTiterGlo), HER2 S310F; assay type: cell-based; details: Table A; BaF3 cells, 3 days
T2 construct: expressed in transfected cells; host or cells: BaF3 (murine pro-B) cells

[3] = target: T3, EGFR V3 (Homo sapiens, UniProt P00533, DELINS30-297G); assay: BaF3 cell proliferation assay (CellTiterGlo), EGFR V3; assay type: cell-based; details: BaF3 cells, 3 days
T3 construct: expressed in transfected cells; host or cells: BaF3 (murine pro-B) cells, retroviral transduction with pMXs-IRES-Blasticidin
Procedure, shortened: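 BaF3 cells made IL-3-independent by retroviral expression of each EGFR or HER2 mutant were treated in triplicate with compound for 72 h. Viability was read by CellTiterGlo ATP luminescence and normalised to vehicle, and EC50 was fitted from dose-response curves.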

[4] = target: T4, EGFR SVD (Homo sapiens, UniProt P00533, INS770SVD); assay: BaF3 cell proliferation assay (CellTiterGlo), EGFR SVD; assay type: cell-based; details: Table A; BaF3 cells, 3 days
T4 construct: expressed in transfected cells; host or cells: BaF3 (murine pro-B) cells, retroviral transduction with pMXs-IRES-Blasticidin
Protocol: (§1) Retroviral Production: EGFR mutants were subcloned into pMXs-IRES-Blasticidin (RTV-016, Cell Biolabs, San Diego, CA). Retroviral expression vector retrovirus was produced by transient transfection of HEK 293T cells with the retroviral EGFR mutant expression vector pMXs-IRES-Blasticidin (RTV-016, Cell Biolabs), pCMV-Gag-Pol vector and pCMV-VSV-G-Envelope vector. Briefly, HEK 293T/17 cells were plated in 100 mm collagen coated plate (354450, Corning Life Sciences, Tewksbury, MA) (4×10^5 per plate) and incubated overnight. The next day, retroviral plasmids (3 ng of EGFR mutant, 1.0 ng of pCMV-Gag-Pol and 0.5 ng pCMV-VSV-G) were mixed in 500 n1 of Optimem (31985, Life Technologies). The mixture was incubated at room temperature for 5 min and then added to Optimem containing transfection reagent Lipofectamine (11668, Invitrogen) and incubated for 20 minutes. Mixture was then added dropwise to HEK 293T cells. The next day the medium was replaced with fresh culture medium and retrovirus was harvested @ 24 and 48 hrs.
(§2) Generation of EGFR mutant stable cell lines: BaF3 cells (1.5E5 cells) were infected with 1 ml of viral supernatant supplemented with 8 ng/ml polybrene by centrifuging for 30 min at 1000 rpm. Cells were placed in a 37° C. incubator overnight. Cells were then spun for 5 minutes to pellet the cells. Supernatant was removed and cells re-infected a fresh 1 ml of viral supernatant supplemented with 8 ng/ml polybrene by centrifuging for 30 min at 1000 rpm. Cells were placed in 37° C. incubator overnight. Cells were then maintained in RPMI containing 10% Heat Inactivated FBS, 2% L-glutamine containing 10 ng/ml IL-3. After 48 hours cells were selected for retroviral infection in 10 […] for one week. Blasticidin resistant populations were washed twice in phosphate buffered saline before plating in media lacking IL-3 to select for IL-3 independent growth.
(§3) Assay for cell proliferation: BaF3 cell lines were resuspended at 1.3E5 c/ml in RPMI containing 10% Heat Inactivated FBS, 2% L-glutamine and 1% Pen/Strep and dispensed in triplicate (17.5E4 c/well) into 96 well plates. To determine the effect of drug on cell proliferation, cells incubated for 3 days in the presence of vehicle control or test drug at varying concentrations. Inhibition of cell growth was determined by luminescent quantification of intracellular ATP content using CellTiterGlo (Promega), according to the protocol provided by the manufacturer. Comparison of cell number on day 0 versus 72 hours post drug treatment was used to plot dose-response curves. The number of viable cells was determined and normalized to vehicle-treated controls. Inhibition of proliferation, relative to vehicle-treated controls was expressed as a fraction of 1 and graphed using PRISM® software (Graphpad Software, San Diego, CA). EC50 values were determined with the same application.

[5] = target: T5, EGFR NPH (Homo sapiens, UniProt P00533, INS773NPH); assay: BaF3 cell proliferation assay (CellTiterGlo), EGFR NPH; assay type: cell-based; details: Table A; BaF3 cells, 3 days
T5 construct: expressed in transfected cells; host or cells: BaF3 (murine pro-B) cells, retroviral transduction with pMXs-IRES-Blasticidin
Protocol: as §1, §2, §3

[6] = target: T6, EGFR wt (Homo sapiens, UniProt P00533); assay: BaF3 cell proliferation assay (CellTiterGlo), EGFR wt; assay type: cell-based; details: BaF3 cells, 3 days
T6 construct: expressed in transfected cells; host or cells: BaF3 (murine pro-B) cells, retroviral transduction with pMXs-IRES-Blasticidin
Procedure, shortened: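 BaF3 cells engineered by retroviral transduction to express EGFR and selected for blasticidin resistance and IL-3 independent growth were suspended at 1.3E5 c/ml in RPMI with 10% heat inactivated FBS, 2% L-glutamine and 1% Pen/Strep. They were plated in triplicate in 96 well plates and exposed to vehicle or varying drug concentrations for 3 days. Viability was quantified by CellTiterGlo ATP luminescence, normalized to vehicle, and curves fitted in PRISM.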

[7] = target: T7, EGFR G598V (Homo sapiens, UniProt P00533, G598V); assay: BaF3 cell proliferation assay (CellTiterGlo), EGFR G598V; assay type: cell-based; details: Table B; BaF3 cells, 3 days
T7 construct: expressed in transfected cells; host or cells: BaF3 (murine pro-B) cells, retroviral transduction with pMXs-IRES-Blasticidin
Protocol: as §1, with “The mixture was incubated at room temperature for 5 min and then added to Optimem containing transfection reagent Lipofectamine (11668, Invitrogen) and incubated for 20 minutes. Mixture was then added dropwise to HEK 293T cells. The next day the medium was replaced with fresh culture medium and retrovirus was harvested @ 24 and 48 hrs.” left out
as §3, with “To determine the effect of drug on cell proliferation, cells incubated for 3 days in the presence of vehicle control or test drug at varying concentrations.” left out, “Comparison of cell number on day 0 versus 72 hours post drug treatment was used to plot dose-response curves.” left out

[8] = target: T8, EGFR A289V (Homo sapiens, UniProt P00533, A289V); assay: BaF3 cell proliferation assay (CellTiterGlo), EGFR A289V; assay type: cell-based; details: Table B; BaF3 cells, 3 days
T8 construct: expressed in transfected cells; host or cells: BaF3 (murine pro-B) cells, retroviral transduction with pMXs-IRES-Blasticidin
Protocol: as §1, with “The mixture was incubated at room temperature for 5 min and then added to Optimem containing transfection reagent Lipofectamine (11668, Invitrogen) and incubated for 20 minutes. Mixture was then added dropwise to HEK 293T cells. The next day the medium was replaced with fresh culture medium and retrovirus was harvested @ 24 and 48 hrs.” left out
as §3, with “To determine the effect of drug on cell proliferation, cells incubated for 3 days in the presence of vehicle control or test drug at varying concentrations.” left out, “Comparison of cell number on day 0 versus 72 hours post drug treatment was used to plot dose-response curves.” left out

[9] = target: T9, EGFR V2 (Homo sapiens, UniProt P00533, DEL545-627); assay: BaF3 cell proliferation assay (CellTiterGlo), EGFR V2; assay type: cell-based; details: Table B; BaF3 cells, 3 days
T9 construct: expressed in transfected cells; host or cells: BaF3 (murine pro-B) cells, retroviral transduction with pMXs-IRES-Blasticidin
Protocol: as §1, with “The mixture was incubated at room temperature for 5 min and then added to Optimem containing transfection reagent Lipofectamine (11668, Invitrogen) and incubated for 20 minutes. Mixture was then added dropwise to HEK 293T cells. The next day the medium was replaced with fresh culture medium and retrovirus was harvested @ 24 and 48 hrs.” left out
as §3, with “To determine the effect of drug on cell proliferation, cells incubated for 3 days in the presence of vehicle control or test drug at varying concentrations.” left out, “Comparison of cell number on day 0 versus 72 hours post drug treatment was used to plot dose-response curves.” left out

[10] = target: T10, EGFR V6 (Homo sapiens, UniProt P00533, DEL434-544); assay: BaF3 cell proliferation assay (CellTiterGlo), EGFR V6; assay type: cell-based; details: Table B; BaF3 cells, 3 days
T10 construct: expressed in transfected cells; host or cells: BaF3 (murine pro-B) cells, retroviral transduction with pMXs-IRES-Blasticidin
Protocol: as §1, with “The mixture was incubated at room temperature for 5 min and then added to Optimem containing transfection reagent Lipofectamine (11668, Invitrogen) and incubated for 20 minutes. Mixture was then added dropwise to HEK 293T cells. The next day the medium was replaced with fresh culture medium and retrovirus was harvested @ 24 and 48 hrs.” left out
as §3, with “To determine the effect of drug on cell proliferation, cells incubated for 3 days in the presence of vehicle control or test drug at varying concentrations.” left out, “Comparison of cell number on day 0 versus 72 hours post drug treatment was used to plot dose-response curves.” left out

[11] = system: GBM tumors; details: phase 2 study, GBM patients, erlotinib in combination with radiation and temozolomide; cited from earlier work

T5 sequence (P00533 with tags, fused parts or gaps INS773NPH): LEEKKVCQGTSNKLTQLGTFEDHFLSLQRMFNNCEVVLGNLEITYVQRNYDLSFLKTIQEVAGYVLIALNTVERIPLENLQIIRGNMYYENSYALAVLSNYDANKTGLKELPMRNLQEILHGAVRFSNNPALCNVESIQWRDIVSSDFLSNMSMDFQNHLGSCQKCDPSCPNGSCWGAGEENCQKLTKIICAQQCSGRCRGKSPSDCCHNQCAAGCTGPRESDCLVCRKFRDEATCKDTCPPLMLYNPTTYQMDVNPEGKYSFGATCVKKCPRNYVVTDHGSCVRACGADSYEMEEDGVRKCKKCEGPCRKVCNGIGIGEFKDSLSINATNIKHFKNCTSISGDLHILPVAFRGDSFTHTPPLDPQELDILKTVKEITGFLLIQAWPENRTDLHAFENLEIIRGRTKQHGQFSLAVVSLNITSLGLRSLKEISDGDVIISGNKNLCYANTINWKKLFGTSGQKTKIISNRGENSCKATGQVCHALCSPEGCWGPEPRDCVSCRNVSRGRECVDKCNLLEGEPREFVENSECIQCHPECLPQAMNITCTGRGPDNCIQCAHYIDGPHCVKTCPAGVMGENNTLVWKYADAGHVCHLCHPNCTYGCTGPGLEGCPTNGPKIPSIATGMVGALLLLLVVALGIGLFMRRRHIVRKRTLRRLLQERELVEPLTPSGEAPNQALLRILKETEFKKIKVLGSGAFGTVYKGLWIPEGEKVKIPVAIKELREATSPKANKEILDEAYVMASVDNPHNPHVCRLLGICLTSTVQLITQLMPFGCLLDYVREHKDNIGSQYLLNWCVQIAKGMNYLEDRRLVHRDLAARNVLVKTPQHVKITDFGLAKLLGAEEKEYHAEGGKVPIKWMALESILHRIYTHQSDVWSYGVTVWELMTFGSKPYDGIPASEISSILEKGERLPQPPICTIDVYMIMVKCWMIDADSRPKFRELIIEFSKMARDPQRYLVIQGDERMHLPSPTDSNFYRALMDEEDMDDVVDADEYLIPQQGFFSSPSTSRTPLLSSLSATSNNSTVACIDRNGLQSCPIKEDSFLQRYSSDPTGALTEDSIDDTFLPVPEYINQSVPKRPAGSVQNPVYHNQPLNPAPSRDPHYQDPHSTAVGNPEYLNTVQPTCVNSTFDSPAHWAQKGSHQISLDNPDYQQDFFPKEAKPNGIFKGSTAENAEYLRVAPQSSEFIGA
T4 sequence (P00533 with tags, fused parts or gaps INS770SVD): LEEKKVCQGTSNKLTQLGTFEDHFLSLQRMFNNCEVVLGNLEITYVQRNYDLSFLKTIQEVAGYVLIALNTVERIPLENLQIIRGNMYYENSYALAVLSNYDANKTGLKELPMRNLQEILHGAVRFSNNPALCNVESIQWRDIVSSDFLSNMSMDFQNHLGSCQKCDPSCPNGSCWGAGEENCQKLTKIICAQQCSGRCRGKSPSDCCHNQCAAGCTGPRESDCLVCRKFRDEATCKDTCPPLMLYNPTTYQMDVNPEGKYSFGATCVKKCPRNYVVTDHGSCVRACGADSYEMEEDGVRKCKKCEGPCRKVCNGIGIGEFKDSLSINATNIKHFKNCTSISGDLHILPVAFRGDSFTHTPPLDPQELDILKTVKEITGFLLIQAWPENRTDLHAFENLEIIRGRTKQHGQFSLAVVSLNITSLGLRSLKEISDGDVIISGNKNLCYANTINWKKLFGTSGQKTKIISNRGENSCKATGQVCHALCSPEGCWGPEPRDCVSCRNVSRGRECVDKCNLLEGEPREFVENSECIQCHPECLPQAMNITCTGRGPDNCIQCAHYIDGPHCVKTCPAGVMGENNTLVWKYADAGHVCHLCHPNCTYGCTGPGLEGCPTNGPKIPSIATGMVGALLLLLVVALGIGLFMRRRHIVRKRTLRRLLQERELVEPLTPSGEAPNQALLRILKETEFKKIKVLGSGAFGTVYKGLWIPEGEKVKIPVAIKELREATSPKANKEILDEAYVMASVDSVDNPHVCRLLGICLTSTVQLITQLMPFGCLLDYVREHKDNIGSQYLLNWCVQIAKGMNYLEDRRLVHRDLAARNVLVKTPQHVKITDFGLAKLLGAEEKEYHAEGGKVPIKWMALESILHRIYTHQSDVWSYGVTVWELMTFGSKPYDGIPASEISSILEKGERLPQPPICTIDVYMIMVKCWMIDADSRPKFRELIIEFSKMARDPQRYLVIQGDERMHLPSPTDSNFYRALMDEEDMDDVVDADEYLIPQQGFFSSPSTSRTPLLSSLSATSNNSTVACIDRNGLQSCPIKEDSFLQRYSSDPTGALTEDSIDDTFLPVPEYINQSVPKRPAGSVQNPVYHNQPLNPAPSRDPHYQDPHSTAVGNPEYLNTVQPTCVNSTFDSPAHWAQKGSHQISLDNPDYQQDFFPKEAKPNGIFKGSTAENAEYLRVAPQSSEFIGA
T2 sequence (P04626 23-1255 S310F): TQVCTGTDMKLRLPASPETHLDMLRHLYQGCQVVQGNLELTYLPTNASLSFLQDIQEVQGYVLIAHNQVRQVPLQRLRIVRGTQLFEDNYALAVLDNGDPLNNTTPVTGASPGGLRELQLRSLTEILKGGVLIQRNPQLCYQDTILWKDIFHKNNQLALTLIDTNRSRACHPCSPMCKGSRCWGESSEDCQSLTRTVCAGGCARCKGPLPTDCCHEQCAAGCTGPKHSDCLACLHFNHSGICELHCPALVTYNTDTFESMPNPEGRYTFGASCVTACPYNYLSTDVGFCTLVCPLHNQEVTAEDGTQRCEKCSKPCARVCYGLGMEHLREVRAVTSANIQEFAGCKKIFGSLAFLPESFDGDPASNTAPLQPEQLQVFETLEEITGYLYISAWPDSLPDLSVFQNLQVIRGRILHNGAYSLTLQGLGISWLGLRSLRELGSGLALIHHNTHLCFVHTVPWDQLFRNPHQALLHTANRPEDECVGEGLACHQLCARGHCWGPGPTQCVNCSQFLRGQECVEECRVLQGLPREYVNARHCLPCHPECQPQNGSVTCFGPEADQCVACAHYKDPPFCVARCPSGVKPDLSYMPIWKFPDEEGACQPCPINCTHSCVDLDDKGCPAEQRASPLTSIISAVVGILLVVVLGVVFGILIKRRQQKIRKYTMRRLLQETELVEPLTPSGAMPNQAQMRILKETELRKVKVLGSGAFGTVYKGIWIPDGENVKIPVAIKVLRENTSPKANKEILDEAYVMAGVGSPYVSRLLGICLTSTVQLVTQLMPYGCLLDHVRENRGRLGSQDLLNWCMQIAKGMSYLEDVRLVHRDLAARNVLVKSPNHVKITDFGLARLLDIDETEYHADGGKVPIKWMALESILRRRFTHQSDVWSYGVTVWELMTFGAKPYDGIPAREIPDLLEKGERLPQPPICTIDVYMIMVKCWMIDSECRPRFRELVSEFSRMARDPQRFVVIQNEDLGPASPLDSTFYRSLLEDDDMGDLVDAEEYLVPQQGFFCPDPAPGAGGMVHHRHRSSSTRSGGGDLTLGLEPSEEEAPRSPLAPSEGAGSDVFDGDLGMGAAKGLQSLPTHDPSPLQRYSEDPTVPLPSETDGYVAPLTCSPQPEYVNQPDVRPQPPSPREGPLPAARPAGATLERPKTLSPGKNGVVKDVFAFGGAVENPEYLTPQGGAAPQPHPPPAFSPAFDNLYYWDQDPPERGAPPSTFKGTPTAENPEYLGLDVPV
T3 sequence (P00533 with tags, fused parts or gaps DELINS30-297G): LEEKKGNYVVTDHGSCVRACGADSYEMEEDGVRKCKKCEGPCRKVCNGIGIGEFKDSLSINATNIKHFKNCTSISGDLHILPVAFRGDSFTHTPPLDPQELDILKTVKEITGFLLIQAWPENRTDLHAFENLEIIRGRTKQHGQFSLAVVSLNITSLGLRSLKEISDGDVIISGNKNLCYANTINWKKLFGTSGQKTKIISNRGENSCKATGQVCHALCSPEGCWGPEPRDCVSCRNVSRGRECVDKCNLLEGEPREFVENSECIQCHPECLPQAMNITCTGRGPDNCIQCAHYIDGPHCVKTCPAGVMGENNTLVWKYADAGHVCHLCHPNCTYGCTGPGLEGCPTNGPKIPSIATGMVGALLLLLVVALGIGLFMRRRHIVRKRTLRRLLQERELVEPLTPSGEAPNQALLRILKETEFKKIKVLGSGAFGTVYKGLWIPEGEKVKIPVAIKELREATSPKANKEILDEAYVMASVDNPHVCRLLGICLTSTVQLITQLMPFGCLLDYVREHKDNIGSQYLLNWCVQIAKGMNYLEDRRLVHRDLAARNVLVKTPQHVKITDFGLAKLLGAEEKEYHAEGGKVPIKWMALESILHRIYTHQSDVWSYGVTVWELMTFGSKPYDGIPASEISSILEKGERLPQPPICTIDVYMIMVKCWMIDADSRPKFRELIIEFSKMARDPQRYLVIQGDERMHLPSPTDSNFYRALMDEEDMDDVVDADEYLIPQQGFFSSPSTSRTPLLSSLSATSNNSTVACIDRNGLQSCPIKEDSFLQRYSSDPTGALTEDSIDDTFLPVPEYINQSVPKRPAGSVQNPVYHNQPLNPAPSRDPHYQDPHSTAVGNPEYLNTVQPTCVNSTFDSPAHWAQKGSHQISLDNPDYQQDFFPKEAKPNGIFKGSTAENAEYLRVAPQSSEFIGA

SMILES: CN1C[C@H]2C[C@@]2(C#Cc2cc3ncnc(Nc4cccc(Cl)c4F)c3cc2NC(=O)/C=C/CN2CCOCC2)C1 [Compound 37, (E)-N-(4-((3-chloro-2-fluorophenyl)amino)-7-(((1R,5S)-3-methyl-3-azabicyclo[3.1.0]hexan-1-yl)ethynyl)quinazolin-6-yl)-4-morpholinobut-2-enamide]
IC50 [1]: 100 to 500 nM
IC50 [2]: 100 to 500 nM
IC50 ([3]; Table A): ≤ 50 nM
IC50 ([3]; Table B): 10 to 25 nM
IC50 [7]: ≤ 10 nM
IC50 [8]: ≤ 10 nM
IC50 [9]: ≤ 10 nM
IC50 [10]: ≤ 10 nM
IC50 ([6]; Table A): ≤ 50 nM
IC50 ([6]; Table B): 25 to 50 nM

SMILES: C=CC(=O)Nc1cc2c(Nc3ccc(Oc4ccccc4)cc3)ncnc2cc1C#C[C@]12C[C@H]1CN(C)C2 [Compound 41, N-(7-(((1S,5R)-3-methyl-3-azabicyclo[3.1.0]hexan-1-yl)ethynyl)-4-((4-phenoxyphenyl)amino)quinazolin-6-yl)acrylamide]
IC50 [1]: ≤ 50 nM
IC50 ([3]; Table A): ≤ 50 nM
IC50 [4]: 100 to 500 nM
IC50 [5]: 100 to 500 nM
IC50 ([6]; Table A): 100 to 500 nM

SMILES: C=CC(=O)Nc1cc2c(Nc3ccc(Cl)c(Cl)c3F)ncnc2cc1C#CC1C2COCC12 (stereo not shown) [Compound No. 80, N-(7-(3-oxabicyclo[3.1.0]hexan-6-ylethynyl)-4-((3,4-dichloro-2-fluorophenyl)amino)quinazolin-6-yl)acrylamide]
IC50 [1]: 100 to 500 nM
IC50 [2]: 50 to 100 nM
IC50 ([3]; Table A): ≤ 50 nM
IC50 ([6]; Table A): 50 to 100 nM

SMILES: C#Cc1cccc(Nc2ncnc3cc(OCCOC)c(OCCOC)cc23)c1 [erlotinib]
median OS (mOS) [11]: 8.6 months
median PFS (mPFS) [11]: 2.8 months

Now from value to molecule:

IC50 [1]: 100 to 500 nM
IC50 [2]: 50 to 100 nM
IC50 ([3]; Table A): ≤ 50 nM
IC50 [4]: 100 to 500 nM
IC50 [5]: 50 to 100 nM
IC50 ([6]; Table A): 50 to 100 nM
SMILES: C=CC(=O)Nc1cc2c(Nc3cccc(Cl)c3F)ncnc2cc1C#CC1(C)CCN(C)C1 (stereo not shown) [Compound 1, N-(4-((3-chloro-2-fluorophenyl)amino)-7-((1,3-dimethylpyrrolidin-3-yl)ethynyl)quinazolin-6-yl)acrylamide]

IC50 [1]: 100 to 500 nM
IC50 [2]: 50 to 100 nM
IC50 ([3]; Table A): ≤ 50 nM
IC50 [4]: 100 to 500 nM
IC50 [5]: 50 to 100 nM
IC50 ([6]; Table A): 100 to 500 nM
SMILES: C=CC(=O)Nc1cc2c(Nc3cccc(Cl)c3F)ncnc2cc1C#C[C@@]1(C)CCN(C)C1 [Compound 2, (R)—N-(4-((3-chloro-2-fluorophenyl)amino)-7-((1,3-dimethylpyrrolidin-3-yl)ethynyl)quinazolin-6-yl)acrylamide]

IC50 [1]: 100 to 500 nM
IC50 [2]: 50 to 100 nM
IC50 ([3]; Table A): ≤ 50 nM
IC50 [4]: 100 to 500 nM
IC50 [5]: 50 to 100 nM
IC50 ([6]; Table A): 50 to 100 nM
SMILES: C=CC(=O)Nc1cc2c(Nc3cccc(Cl)c3F)ncnc2cc1C#C[C@]1(C)CCN(C)C1 [Compound 3, (S)—N-(4-((3-chloro-2-fluorophenyl)amino)-7-((1,3-dimethylpyrrolidin-3-yl)ethynyl)quinazolin-6-yl)acrylamide]

IC50 [1]: ≤ 50 nM
IC50 [2]: ≤ 50 nM
IC50 ([3]; Table A): ≤ 50 nM
IC50 [4]: ≤ 50 nM
IC50 [5]: ≤ 50 nM
IC50 ([6]; Table A): > 500 nM
SMILES: C=CC(=O)Nc1cc2c(Nc3ccc(OCc4ccccn4)c(Cl)c3)ncnc2cc1C#CC1(C)CCN(C)C1 (stereo not shown) [Compound 12, N-(4-((3-chloro-4-(pyridin-2-ylmethoxy)phenyl)amino)-7-((1,3-dimethylpyrrolidin-3-yl)ethynyl)quinazolin-6-yl)acrylamide]

IC50 [1]: > 500 nM
IC50 [2]: > 500 nM
IC50 ([3]; Table A): > 500 nM
IC50 ([6]; Table A): > 500 nM
SMILES: C=CC(=O)Nc1cc2c(Nc3ccc(OCc4ccccn4)c(Cl)c3)ncnc2cc1C#C[C@H]1[C@H]2CN(C)C[C@@H]12 [Compound 79, N-(4-((3-chloro-4-(pyridin-2-ylmethoxy)phenyl)amino)-7-(((1R,5S,6r)-3-methyl-3-azabicyclo[3.1.0]hexan-6-yl)ethynyl)quinazolin-6-yl)acrylamide]
